pIC50: −log10 of the molar value. Active and inactive are the calls of the source. The rule behind the calls is not given here.
What was measured:
MIA PaCa-2 [1] = experiment: Antiproliferative activity against human MIA PaCa-2 cells harboring KRAS G12C mutant at 0.1 uM incubated for 72 hrs by CCK8 assay relative to control; type: functional
HCT-116 [2] = experiment: Antiproliferative activity against human HCT-116 cells harboring KRAS G13D mutant at 1 uM incubated for 72 hrs by CCK8 assay relative to control; type: functional
MIA PaCa-2 [3] = experiment: Antiproliferative activity against human MIA PaCa-2 cells harboring KRAS G12C mutant incubated for 72 hrs by CCK8 assay; type: functional, cell-based; settings: MIA PaCa-2, 72 h
HCT-116 [4] = experiment: Antiproliferative activity against human HCT-116 cells harboring KRAS G13D mutant incubated for 72 hrs by CCK8 assay; type: functional, cell-based; settings: HCT-116, 72 h
[5] = target: T1, Dual specificity mitogen-activated protein kinase kinase 1 (Homo sapiens, UniProt Q02750); experiment: Inhibition of MEK1 (unknown origin)
T1 sequence (Q02750 whole entry): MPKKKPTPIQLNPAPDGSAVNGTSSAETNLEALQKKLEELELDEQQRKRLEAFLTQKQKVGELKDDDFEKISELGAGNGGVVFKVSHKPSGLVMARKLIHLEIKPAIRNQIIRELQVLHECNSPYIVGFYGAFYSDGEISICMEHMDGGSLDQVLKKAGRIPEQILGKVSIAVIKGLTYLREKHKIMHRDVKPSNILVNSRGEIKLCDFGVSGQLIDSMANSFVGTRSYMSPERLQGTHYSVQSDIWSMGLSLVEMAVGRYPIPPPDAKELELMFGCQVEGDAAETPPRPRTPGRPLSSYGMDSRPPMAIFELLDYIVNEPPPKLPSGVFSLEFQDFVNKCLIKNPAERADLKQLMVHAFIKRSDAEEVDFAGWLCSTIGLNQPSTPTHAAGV

[6] = target: T2, Serine/threonine-protein kinase B-raf (Homo sapiens, UniProt P15056); experiment: Inhibition of BRAF (unknown origin)
T2 sequence (P15056 whole entry): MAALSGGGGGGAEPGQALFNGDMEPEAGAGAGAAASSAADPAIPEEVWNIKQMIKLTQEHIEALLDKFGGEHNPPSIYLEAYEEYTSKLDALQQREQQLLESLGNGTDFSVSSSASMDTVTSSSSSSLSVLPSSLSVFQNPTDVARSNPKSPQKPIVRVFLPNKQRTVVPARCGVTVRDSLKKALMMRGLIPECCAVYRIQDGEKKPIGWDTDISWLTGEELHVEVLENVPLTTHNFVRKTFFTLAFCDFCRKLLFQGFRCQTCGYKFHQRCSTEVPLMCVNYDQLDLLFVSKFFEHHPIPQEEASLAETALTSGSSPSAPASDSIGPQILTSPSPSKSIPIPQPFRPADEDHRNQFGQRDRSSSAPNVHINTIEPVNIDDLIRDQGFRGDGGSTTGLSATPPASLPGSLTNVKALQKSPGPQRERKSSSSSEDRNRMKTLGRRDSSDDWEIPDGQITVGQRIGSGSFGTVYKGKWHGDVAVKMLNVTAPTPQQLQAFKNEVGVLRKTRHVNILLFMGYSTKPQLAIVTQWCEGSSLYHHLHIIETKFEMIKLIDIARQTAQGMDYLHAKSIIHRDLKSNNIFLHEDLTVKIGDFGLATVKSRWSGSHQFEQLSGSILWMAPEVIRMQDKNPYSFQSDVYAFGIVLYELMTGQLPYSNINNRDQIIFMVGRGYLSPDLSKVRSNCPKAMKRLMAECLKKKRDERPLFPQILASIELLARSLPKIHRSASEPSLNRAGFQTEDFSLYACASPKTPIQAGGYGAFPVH

[7] = target: T1, Dual specificity mitogen-activated protein kinase kinase 1; experiment: Inhibition of MEK1 (unknown origin) assessed as remaining activity at 0.1 uM relative to control
[8] = target: T2, Serine/threonine-protein kinase B-raf; experiment: Inhibition of BRAF (unknown origin) assessed as remaining activity at 0.1 uM relative to control
[9] = Inhibition of BRAF […] mutant (unknown origin); set-up: species or system Homo sapiens
[10] = Antiproliferative activity against mouse C26 cells harboring KRAS G12D mutant incubated for 72 hrs by CCK8 assay; type: functional, cell-based, C-26; settings: C26, 72 h
HeLa = experiment: Antiproliferative activity against human HeLa cells incubated for 72 hrs by CCK8 assay; type: functional, cell-based
[11] = Antiproliferative activity against rat H9c2 cells incubated for 72 hrs by CCK8 assay; type: toxicity, cell-based
[12] = Stability in human liver microsomes assessed as half life at 200 uM preincubated for 5 mins followed by NADPH addition measured upto 60 mins by LC-MS/MS analysis; type: ADME, Microsome; settings: time 65 min
[13] = target: Dual specificity mitogen-activated protein kinase kinase; MEK1/2 (Homo sapiens) (UniProt P36507+Q02750); experiment: Inhibition of MEK phosphorylation in human MIA PaCa-2 cells upto 1 uM incubated for 4 hrs by Western blot analysis; type: cell-based
Sequence of Dual specificity mitogen-activated protein kinase kinase; MEK1/2 (Homo sapiens) (P36507 whole entry, looked up): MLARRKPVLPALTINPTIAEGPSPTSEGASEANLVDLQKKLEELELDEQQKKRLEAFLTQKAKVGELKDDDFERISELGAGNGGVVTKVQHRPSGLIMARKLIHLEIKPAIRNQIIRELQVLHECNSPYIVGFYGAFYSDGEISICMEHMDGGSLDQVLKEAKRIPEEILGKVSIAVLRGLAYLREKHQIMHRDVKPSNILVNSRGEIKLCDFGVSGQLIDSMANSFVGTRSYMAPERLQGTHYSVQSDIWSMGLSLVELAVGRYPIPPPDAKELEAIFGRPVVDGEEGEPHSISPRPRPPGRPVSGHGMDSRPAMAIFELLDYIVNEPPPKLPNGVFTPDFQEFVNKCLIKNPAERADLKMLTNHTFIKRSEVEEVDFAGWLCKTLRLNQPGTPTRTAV
Sequence of Dual specificity mitogen-activated protein kinase kinase; MEK1/2 (Homo sapiens) (Q02750 whole entry, looked up): as the sequence (Q02750 whole entry) above

[14] = tested on: Mitogen-activated protein kinase 1/3 (ERK1/2) (Homo sapiens); experiment: Inhibition of ERK phosphorylation in human MIA PaCa-2 cells upto 1 uM incubated for 4 hrs by Western blot analysis

Compound | inhibition at 0.1 µM (MIA PaCa-2 [1]) | inhibition at 1 µM (HCT-116 [2]) | pIC50 (MIA PaCa-2 [3]) | pIC50 (HCT-116 [4]) | pIC50 [5] | pIC50 [6] | Activity [7] | Activity [8] | pIC50 [9] | pIC50 [10] | pIC50 (HeLa) | IC50 at 72 h [11] | half-life at 200 µM [12] | inhibition [13] | inhibition [14]
CNS(=O)(=O)Nc1cccc(Cn2cnc3c(F)c(Nc4ccc(C5CC5)cc4F)c(C(=O)NOCCO)cc32)c1 | 53.1% | 52.8% | 6.94 | 6.65 | 6.92 | 8.30 | 58% | 5% | 7.80 | 6.82 | < 5.00 | > 50000 nM | – | – | –
CNS(=O)(=O)Nc1cccc(Cn2cnc3c(F)c(Nc4ccc(Br)cc4F)c(C(=O)NOCCO)cc32)c1F | 35.7% | 60.3% | 6.65 | 6.95 | – | – | 16% | 3% | – | – | – | – | – | – | –
CNS(=O)(=O)Nc1cccc(Cn2cnc3c(F)c(Nc4ccc(I)cc4F)c(C(=O)NOCCO)cc32)c1F | 62% | 64.8% | 7.15 | 7.13 | 8.10 | 8.40 | 9% | -2% | – | 7.96 | < 5.00 | > 50000 nM | 25 min | Active | Active
CNS(=O)(=O)Nc1cc(F)cc(Cn2cnc3c(F)c(Nc4ccc(C5CC5)cc4F)c(C(=O)NOCCO)cc32)c1 | 65.8% | 57.4% | 7.33 | 6.76 | – | – | 53% | 5% | – | – | – | – | – | – | –
CNS(=O)(=O)Nc1cccc(Cn2cnc3c(F)c(Nc4ccc(I)cc4F)c(C(=O)NOCCO)cc32)c1Cl | 60.8% | 66.7% | 7.22 | 6.45 | – | – | 5% | 1% | – | – | – | – | – | – | –
CNS(=O)(=O)Nc1cccc(Cn2cnc3c(F)c(Nc4ccc(C)cc4F)c(C(=O)NOCCO)cc32)c1F | 57.7% | 74.8% | 6.06 | 6.16 | – | – | 58% | 3% | – | – | – | – | – | – | –
CCNS(=O)(=O)Nc1cc(F)cc(Cn2cnc3c(F)c(Nc4ccc(C5CC5)cc4F)c(C(=O)NOCCO)cc32)c1 | 76.5% | 56.7% | 7.49 | 6.85 | – | – | 59% | 5% | – | – | – | – | – | – | –
CCNS(=O)(=O)Nc1cccc(Cn2cnc3c(F)c(Nc4ccc(I)cc4F)c(C(=O)NOCCO)cc32)c1F | 65.3% | 69.1% | 7.37 | 6.69 | – | – | 8% | 1% | – | – | – | – | – | – | –
CNS(=O)(=O)Nc1cccc(Cn2cnc3c(F)c(Nc4ccc(C5CC5)cc4F)c(C(=O)NOCCO)cc32)c1Cl | 62.6% | 55.6% | 6.77 | 6.20 | – | – | 19% | 3% | – | – | – | – | – | – | –
CCNS(=O)(=O)Nc1cccc(Cn2cnc3c(F)c(Nc4ccc(Br)cc4F)c(C(=O)NOCCO)cc32)c1F | 22.8% | 65.1% | 6.44 | 6.82 | – | – | 20% | 2% | – | – | – | – | – | – | –
